From ChEMBL document CHEMBL1201862, “PubChem BioAssay data set” (2004)
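Exposure lasted 48 hours, with cells grown in 96-well plates and compounds tested at five concentrations. At the GI50, growth is halved.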 Activity calls are given as the source filed them. Cut-off read from the data, not from the text of the source: active = GI50 up to about 1.1 µM and inactive = higher.

Key:
Experiment in all cases: NCI anticancer screen, dose series, 48 h
UO-31 = test system: UO-31
A498 = test system: A498
SNB-75 = test system: SNB-75
SN12C = test system: SN12C
IGROV-1 = test system: IGROV-1
M14 = test system: M14
UACC-62 = test system: UACC-62
HL-60 = test system: HL-60
ACHN = test system: ACHN
SK-MEL-28 = test system: SK-MEL-28
OVCAR-3 = test system: OVCAR-3
A549 = test system: A549
SF-295 = test system: SF-295
K562 = test system: K562
SF-539 = test system: SF-539
RXF 393 = test system: RXF 393
NCI-H522 = test system: NCI-H522
HOP-92 = test system: HOP-92

Measured: GI50

COc1nc(=O)cc(N)n1C1OC(CO)C(O)C1O (stereo not drawn)
inactive: UO-31 > 100 µM | A498 > 100 µM | SNB-75 > 100 µM | SN12C > 100 µM | IGROV-1 > 100 µM | M14 > 100 µM | UACC-62 > 100 µM | HL-60 > 100 µM | ACHN > 100 µM | SK-MEL-28 > 100 µM | OVCAR-3 > 100 µM | A549 > 100 µM | SF-295 > 100 µM | K562 > 100 µM | SF-539 > 100 µM | RXF 393 > 100 µM | NCI-H522 > 100 µM

CC(C)c1ccc(C2C3=C(N=C4SCC(=O)N42)C(=O)c2ccccc23)cc1 (stereo not drawn)
inactive: UO-31 5.6 µM | A498 > 100 µM | SNB-75 22.3 µM | SN12C 41 µM | IGROV-1 > 100 µM | M14 > 100 µM | UACC-62 33.7 µM | HOP-92 15.7 µM | HL-60 36 µM | ACHN 73.1 µM | SK-MEL-28 35.1 µM | OVCAR-3 60 µM | A549 58.9 µM | SF-295 82.8 µM | K562 54 µM | SF-539 > 100 µM | NCI-H522 22.4 µM

S=P(c1ccccc1)(c1ccccc1)C1(C2(P(=S)(c3ccccc3)c3ccccc3)CC2)CC1
inactive: UO-31 > 100 µM | SNB-75 > 100 µM | SN12C > 100 µM | IGROV-1 > 100 µM | M14 > 100 µM | UACC-62 > 100 µM | ACHN > 100 µM | SK-MEL-28 > 100 µM | A549 > 100 µM | SF-295 > 100 µM | K562 > 100 µM | SF-539 > 100 µM | RXF 393 > 100 µM | NCI-H522 > 100 µM

NS(=O)(=O)c1cc2c(cc1Cl)NC(/C(=N/NC(=O)c1ccncc1)C1C(=O)NC(=O)NC1=O)=NS2(=O)=O
inactive: UO-31 95.3 µM | A498 > 100 µM | IGROV-1 > 100 µM | M14 > 100 µM | UACC-62 > 100 µM | HOP-92 > 100 µM | HL-60 > 100 µM | ACHN > 100 µM | OVCAR-3 > 100 µM | A549 > 100 µM | SF-295 > 100 µM | K562 > 100 µM | SF-539 > 100 µM

COC(=O)/C1=C/C2CC(/C=C(/c3ccccc3)C(=O)O1)C2
inactive: UO-31 32.9 µM | SNB-75 5.93 µM | SN12C 24.4 µM | IGROV-1 42.4 µM | M14 29.2 µM | UACC-62 14.7 µM | HL-60 22.5 µM | ACHN 26.3 µM | SK-MEL-28 23.8 µM | OVCAR-3 33.2 µM | A549 29.9 µM | SF-295 32.9 µM | K562 27.8 µM | SF-539 33.3 µM | RXF 393 25.1 µM | NCI-H522 16.7 µM

c1ccc2c(c1)c1ccccc1c1n[se]nc21
inactive: UO-31 33.1 µM | A498 19.5 µM | SNB-75 28.1 µM | SN12C > 100 µM | IGROV-1 36.1 µM | M14 > 100 µM | UACC-62 > 100 µM | HL-60 > 100 µM | ACHN 31.8 µM | SK-MEL-28 > 100 µM | A549 52.6 µM | SF-295 43.9 µM | K562 > 100 µM | SF-539 34.6 µM | RXF 393 68.5 µM | NCI-H522 > 100 µM

O=C(CSc1nc(-c2ccccc2)c(-c2ccccc2)[nH]1)N/N=C/c1ccc(O)cc1
inactive: UO-31 28.1 µM | SNB-75 19.7 µM | SN12C 26.4 µM | IGROV-1 26.4 µM | M14 19 µM | UACC-62 22.1 µM | HOP-92 22.8 µM | HL-60 20 µM | ACHN 22.1 µM | SK-MEL-28 32.1 µM | OVCAR-3 18.2 µM | A549 24.2 µM | SF-295 22.4 µM | K562 23.6 µM | SF-539 19.1 µM | RXF 393 24.2 µM | NCI-H522 20.2 µM

NNC(=O)/C(=C/c1ccc(Cl)c(Cl)c1)NC(=O)c1ccccc1
inactive: UO-31 > 100 µM | SNB-75 > 100 µM | SN12C > 100 µM | IGROV-1 > 100 µM | M14 > 100 µM | UACC-62 > 100 µM | HOP-92 40.5 µM | HL-60 > 100 µM | ACHN > 100 µM | SK-MEL-28 > 100 µM | OVCAR-3 > 100 µM | A549 > 100 µM | SF-295 > 100 µM | RXF 393 > 100 µM

COc1cc2c3c(n(C)c(=O)c2cc1OC)-c1cc2c(cc1/C3=C\CCCCl)OCO2
inactive: UO-31 53.8 µM | A498 25.3 µM | SNB-75 11.9 µM | IGROV-1 25.4 µM | M14 36.9 µM | HOP-92 82.2 µM | HL-60 55.1 µM | ACHN 29.7 µM | SK-MEL-28 89.7 µM | A549 > 100 µM | SF-295 19.9 µM | K562 23.2 µM | RXF 393 12.9 µM | NCI-H522 20.8 µM
